{
  "source": "patent US8293742B2",
  "about": "“Preferential vasoconstriction compositions and methods of use” (Alpha Synergy Development, Inc., priority 2008, dated 2012)",
  "key": {"[1]": {"test_system": "eyes of a patient with an ocular condition", "conditions": "brimonidine 0.01-[…] (left eye) compared with tetrahydrozoline 0.05%, oxymetazoline […], naphazoline […] (right eye); baseline redness 4/4", "source_text": "In an average clinical situation, baseline redness is at 1-1.5/4."}, "red eye condition": {"test_system": "red eye condition", "test": "Red eye study, brimonidine vs VISINE Original, cumulative red scores (Example 4)", "format": "in vivo, human", "conditions": "three week scores, brimonidine at […]", "method": "The patients were assigned “cumulative red scores” , prior to each administration (as baseline) and then 10 min after each dose, by dividing the bulbar conjunctiva into six sectors, each scored with a grade 1-3 score and the total cumulative score."}, "chronic red eyes": {"test_system": "chronic red eyes", "test": "Chronic red eyes, eld brimonidine vs Naphcon-A, patient satisfaction assessment (Example 5)", "format": "in vivo, human", "conditions": "brimonidine at […], drops twice a day for three to five weeks, seven patients", "method": "The treatment was through drops twice a day for three to five weeks. At the end, patient satisfaction assessment was conducted."}, "rebound hyperemia": {"test_system": "rebound hyperemia", "test": "Reversal of pre-induced rebound hyperemia (FIGS. 5A-C)", "format": "in vivo, human", "conditions": "right eye, brimonidine at […] after VISINE Original", "source_text": "FIG. 5A is a baseline visual appearance of two eyes of a patient with an ocular condition."}, "[2]": {"test_system": "vasoconstriction, rebound hyperemia, intraocular pressure, corneal endothelial cell pump", "conditions": "FIG. 2"}, "[3]": {"test_system": "postoperative hyperemia and conjunctival hemorrhage", "test": "Lasik prophylaxis (Example 2)", "conditions": "brimonidine 0.02%"}},
  "data": [
    {"smiles": "Brc1c(N=C2NCCN2)ccc2nccnc12.O=C(O)C(O)C(O)C(=O)O", "note": "[brimonidine, 5-bromo-6-(2-imidazolidinylideneamino)quinoxaline L-tartrate]", "values": [
      {"measurement": "scleral whitening brightening effects", "setting": "[1]", "result": "significant scleral whitening brightening effects"},
      {"measurement": "average redness count after administration (went down to)", "setting": "red eye condition", "result": 1.6},
      {"measurement": "patient-reported redness", "setting": "chronic red eyes", "result": "All patients reported reduced redness"},
      {"measurement": "reversal of induced rebound hyperemia", "setting": "rebound hyperemia", "result": "reversing the VISINE Original® induced rebound hyperemia"},
      {"measurement": "concentration at which intraocular pressure reduction and corneal endothelial cell pump inhibition are just at their maximum", "setting": "[2]", "result": "about 0.09%"},
      {"measurement": "concentration below which intraocular pressure reduction and endothelial cell pump inhibition drop off exponentially", "setting": "[2]; vasoconstrictive effect remains largely unchanged", "result": "below 0.08%"},
      {"measurement": "cosmetic appearance from day 1 vs. no vasoconstrictor and vs. Naphcon-A", "setting": "[3]", "result": "much improved"},
      {"measurement": "eye appearance after Lasik", "setting": "[3]; group expanded to over 500 eyes", "result": "white quiet eye is noted in most patients"}
    ]}
  ]
}
